Experimental findings from US12371428B2 (Exelixis, Inc., priority 2019, dated 2025) are described below.

Usually IC50 stands for the concentration at which inhibition is half-maximal.

Structures can show the parent of a compound that is named as a salt.

Assay [1] addresses Human MET (residues 956-1390) (Homo sapiens (Human), UniProt P08581). Put plainly: Human Met kinase assay, HTRF KinEase (Example D-2). The assay is classed as biochemical. Particulars: protocol of Example D-2 (other compounds); read-out: c-Met IC50. The procedure, abridged: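 IC50 values come from a 4-parameter logistic fit of the […] fluorescence ratio, set between DMSO (100%) and reference compound at 1 μM (0%). Reactions held MET 956-1390 at 0.1 ng/well, ATP at Km, biotinylated peptide, 5 mM MgCl2, 1 mM MnCl2, 1 mM DTT and 3% DMSO, and ran 40 min at room temperature before streptavidin-XL665/Eu-antibody detection.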
For orientation: TR-FRET usually uses a lanthanide donor and a delayed reading to cut background.

The target in assay [2] is Met (phospho-Met, HGF-stimulated PC-3 prostate cancer cells) (Homo sapiens (Human), UniProt P08581). Put plainly: Met autophosphorylation ELISA in PC-3 cells (Example F). The format is cell-based. Particulars: cellular activity; Met autophosphorylation ELISA in PC-3 cells; read-out: c-Met IC50. The procedure, abridged:
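IC50 values derive from a 4-parameter logistic fit of phospho-Met (panTyr) sandwich ELISA signals in PC-3 lysates, scaled between DMSO and reference-inhibitor wells. Cells, starved 3 h in serum-free medium, had 1 h compound exposure (8 doses, 0.3% DMSO) before 10 min stimulation with 100 ng/mL HGF.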

In assay [3] the target is KDR (phospho-KDR, VEGF165-stimulated HUVEC cells) (Homo sapiens (Human), UniProt P35968). Put plainly: KDR autophosphorylation ELISA in HUVEC cells (Example G). Particulars: cellular activity; KDR autophosphorylation ELISA in HUVEC cells. The assay is classed as cell-based. In a few lines:
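HUVEC cells, serum-starved 24 h, were treated 1 h with an 8-point compound dilution (0.3% DMSO) and then stimulated with 100 ng/mL VEGF165 for 5 min. Phospho-KDR in lysates was quantified by sandwich ELISA against a phospho-KDR standard. IC50 from a 4-parameter logistic fit, normalised between stimulated DMSO and unstimulated controls.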

Met (phospho-Met, HGF-stimulated PC-3 prostate cancer cells), sequence (P08581 25-1390): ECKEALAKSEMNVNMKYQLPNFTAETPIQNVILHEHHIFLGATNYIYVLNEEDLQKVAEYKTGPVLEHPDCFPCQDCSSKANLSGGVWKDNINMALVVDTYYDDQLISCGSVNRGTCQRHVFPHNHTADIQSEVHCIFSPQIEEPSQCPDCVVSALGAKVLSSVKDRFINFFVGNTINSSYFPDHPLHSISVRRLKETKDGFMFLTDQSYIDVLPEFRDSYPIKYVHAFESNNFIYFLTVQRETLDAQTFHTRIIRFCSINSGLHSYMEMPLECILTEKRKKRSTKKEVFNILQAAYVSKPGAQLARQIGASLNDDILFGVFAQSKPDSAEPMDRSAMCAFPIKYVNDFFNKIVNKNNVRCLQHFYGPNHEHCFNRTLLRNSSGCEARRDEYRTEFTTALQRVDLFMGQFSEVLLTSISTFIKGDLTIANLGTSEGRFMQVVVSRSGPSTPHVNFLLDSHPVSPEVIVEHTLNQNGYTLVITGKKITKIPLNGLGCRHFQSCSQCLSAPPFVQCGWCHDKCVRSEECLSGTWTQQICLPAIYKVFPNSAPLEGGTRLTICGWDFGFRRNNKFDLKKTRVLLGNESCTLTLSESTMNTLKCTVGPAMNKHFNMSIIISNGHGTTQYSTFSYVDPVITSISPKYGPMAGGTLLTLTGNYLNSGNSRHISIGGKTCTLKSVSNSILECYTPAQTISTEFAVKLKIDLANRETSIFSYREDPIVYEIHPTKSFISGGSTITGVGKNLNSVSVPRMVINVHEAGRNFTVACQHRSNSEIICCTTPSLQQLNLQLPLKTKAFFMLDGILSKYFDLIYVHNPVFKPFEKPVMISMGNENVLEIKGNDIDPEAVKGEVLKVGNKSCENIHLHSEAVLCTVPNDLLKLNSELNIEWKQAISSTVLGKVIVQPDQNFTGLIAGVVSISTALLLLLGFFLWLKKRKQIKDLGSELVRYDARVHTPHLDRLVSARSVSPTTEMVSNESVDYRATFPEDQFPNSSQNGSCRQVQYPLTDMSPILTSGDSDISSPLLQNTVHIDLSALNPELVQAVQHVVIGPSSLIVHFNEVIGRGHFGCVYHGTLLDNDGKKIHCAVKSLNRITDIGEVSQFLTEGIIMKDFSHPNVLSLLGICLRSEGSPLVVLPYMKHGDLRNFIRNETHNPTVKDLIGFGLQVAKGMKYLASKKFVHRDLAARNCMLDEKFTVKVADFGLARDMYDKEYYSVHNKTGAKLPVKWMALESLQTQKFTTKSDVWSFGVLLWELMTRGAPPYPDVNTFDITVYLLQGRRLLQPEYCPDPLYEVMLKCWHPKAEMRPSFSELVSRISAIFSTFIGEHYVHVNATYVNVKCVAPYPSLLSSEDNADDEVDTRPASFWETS
KDR (phospho-KDR, VEGF165-stimulated HUVEC cells), sequence (P35968 20-1356): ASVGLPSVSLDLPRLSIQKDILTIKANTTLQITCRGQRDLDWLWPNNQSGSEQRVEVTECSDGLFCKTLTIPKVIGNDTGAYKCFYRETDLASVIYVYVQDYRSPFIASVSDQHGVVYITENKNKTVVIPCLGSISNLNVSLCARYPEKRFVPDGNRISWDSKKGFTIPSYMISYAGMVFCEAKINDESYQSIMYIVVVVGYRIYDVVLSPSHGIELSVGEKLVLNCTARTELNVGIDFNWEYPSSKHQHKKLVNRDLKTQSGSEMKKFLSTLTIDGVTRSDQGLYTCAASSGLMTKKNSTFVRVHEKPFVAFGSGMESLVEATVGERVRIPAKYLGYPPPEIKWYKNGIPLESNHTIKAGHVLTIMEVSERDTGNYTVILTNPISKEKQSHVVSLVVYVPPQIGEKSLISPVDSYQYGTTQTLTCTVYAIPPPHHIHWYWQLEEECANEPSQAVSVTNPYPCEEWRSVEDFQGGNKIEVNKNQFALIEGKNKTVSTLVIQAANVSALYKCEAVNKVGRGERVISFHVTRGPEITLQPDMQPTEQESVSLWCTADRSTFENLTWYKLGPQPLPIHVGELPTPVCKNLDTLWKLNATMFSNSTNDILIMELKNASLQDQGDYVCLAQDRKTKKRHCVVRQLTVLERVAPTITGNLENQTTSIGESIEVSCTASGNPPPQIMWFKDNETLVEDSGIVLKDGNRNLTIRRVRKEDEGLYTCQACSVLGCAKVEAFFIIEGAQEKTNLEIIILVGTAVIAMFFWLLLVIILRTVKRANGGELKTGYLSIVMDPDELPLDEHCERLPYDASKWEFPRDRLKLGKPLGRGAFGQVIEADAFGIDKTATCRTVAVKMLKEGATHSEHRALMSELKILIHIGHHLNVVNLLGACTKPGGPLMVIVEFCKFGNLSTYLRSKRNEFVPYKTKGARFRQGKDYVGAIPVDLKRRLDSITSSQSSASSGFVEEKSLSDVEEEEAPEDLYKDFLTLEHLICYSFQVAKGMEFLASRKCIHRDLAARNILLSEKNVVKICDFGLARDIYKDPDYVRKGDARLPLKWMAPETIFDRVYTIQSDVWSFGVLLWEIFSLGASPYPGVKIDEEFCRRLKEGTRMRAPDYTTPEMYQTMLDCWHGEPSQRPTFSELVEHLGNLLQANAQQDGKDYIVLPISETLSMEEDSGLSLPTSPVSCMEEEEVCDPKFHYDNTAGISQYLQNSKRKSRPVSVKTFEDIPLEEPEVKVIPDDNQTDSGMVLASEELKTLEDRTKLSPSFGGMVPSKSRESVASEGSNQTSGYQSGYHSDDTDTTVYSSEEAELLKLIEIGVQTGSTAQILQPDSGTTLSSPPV
Human MET (residues 956-1390), sequence (P08581 956-1390): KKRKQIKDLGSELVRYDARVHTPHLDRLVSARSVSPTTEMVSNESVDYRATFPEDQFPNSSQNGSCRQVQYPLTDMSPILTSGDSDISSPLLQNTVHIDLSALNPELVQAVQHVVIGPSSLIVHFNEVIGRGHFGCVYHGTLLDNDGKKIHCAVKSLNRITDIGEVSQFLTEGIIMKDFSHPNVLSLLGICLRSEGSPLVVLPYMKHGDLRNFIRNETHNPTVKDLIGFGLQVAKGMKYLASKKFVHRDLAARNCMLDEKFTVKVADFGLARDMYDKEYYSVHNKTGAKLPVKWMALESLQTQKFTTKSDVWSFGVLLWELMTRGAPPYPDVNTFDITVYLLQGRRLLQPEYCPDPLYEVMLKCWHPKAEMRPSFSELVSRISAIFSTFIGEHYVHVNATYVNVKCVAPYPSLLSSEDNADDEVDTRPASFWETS

With `COc1cnc2c(Oc3ccc(NC(=O)c4nnc(C)c(-c5ccc(F)cc5C)c4O)cc3F)ccnc2c1` (single isomer, unassigned) [Compound 249B, N-[3-Fluoro-4-[(7-methoxy-1,5-naphthyridin-4-yl)oxy]phenyl]-5-(4-fluoro-2-methylphenyl)-4-hydroxy-6-methylpyridazine-3-carboxamide], the IC50 in assay [1], in assay [2] and in assay [3] was under 100 nM each time.
As to `COc1cnc2c(Oc3ccc(NC(=O)c4nnc(C)c(-c5ccc(F)cc5C)c4O)cc3F)ccnc2c1` (single isomer, unassigned) [Compound 249C, N-[3-Fluoro-4-[(7-methoxy-1,5-naphthyridin-4-yl)oxy]phenyl]-5-(4-fluoro-2-methylphenyl)-4-hydroxy-6-methylpyridazine-3-carboxamide], the IC50 in assay [1], in assay [2] and in assay [3] was under 100 nM each time.
As for `COc1cc2nccc(Oc3ccc(NC(=O)c4cn(C(C)C)c(C)c(-c5cccc(F)c5)c4=O)cc3F)c2nc1OC` [Compound 30, N-[4-[(6,7-Dimethoxy-1,5-naphthyridin-4-yl)oxy]-3-fluorophenyl]-5-(3-fluorophenyl)-6-methyl-4-oxo-1-propan-2-ylpyridine-3-carboxamide hydrochloride], the IC50 was under 100 nM in assay [1], under 100 nM in assay [2] and over 300 nM in assay [3].
Regarding `COc1ccc(-c2c(C)n(C(C)C)cc(C(=O)Nc3ccc(Oc4ccnc5cc(OC)c(OC)nc45)c(F)c3)c2=O)cc1` [Compound 31, N-[4-[(6,7-dimethoxy-1,5-naphthyridin-4-yl)oxy]-3-fluorophenyl]-5-(4-methoxyphenyl)-6-methyl-4-oxo-1-propan-2-ylpyridine-3-carboxamide hydrochloride], the IC50 is under 100 nM in assay [1], 100 to 300 nM in assay [2] and over 300 nM in assay [3].
For `COc1cc2nccc(Oc3ccc(NC(=O)c4cn(C(C)C)c(C)c(-c5ccc(F)cc5C)c4=O)cc3F)c2nc1OC` [Compound 32, N-[4-[(6,7-Dimethoxy-1,5-naphthyridin-4-yl)oxy]-3-fluorophenyl]-5-(4-fluoro-2-methylphenyl)-6-methyl-4-oxo-1-propan-2-ylpyridine-3-carboxamide hydrochloride], in that order: under 100 nM, under 100 nM and over 300 nM.
`COc1cc2nccc(Oc3ccc(NC(=O)c4cn(C)cc(-c5ccccc5)c4=O)cc3F)c2nc1OC` [Compound 33, N-[4-[(6,7-Dimethoxy-1,5-naphthyridin-4-yl)oxy]-3-fluorophenyl]-1-methyl-4-oxo-5-phenylpyridine-3-carboxamide hydrochloride]: the IC50 in assay [1], in assay [2] and in assay [3] was under 100 nM throughout.
For the molecule `COc1cc2nccc(Oc3ccc(NC(=O)c4cn(C)cc(-c5cccc(F)c5)c4=O)cc3F)c2nc1OC` [Compound 35, N-[4-[(6,7-Dimethoxy-1,5-naphthyridin-4-yl)oxy]-3-fluorophenyl]-5-(3-fluorophenyl)-1-methyl-4-oxopyridine-3-carboxamide hydrochloride], the IC50 in assay [1], in assay [2] and in assay [3] was under 100 nM throughout.
With `COc1cc2nccc(Oc3ccc(NC(=O)c4cn(C)c(C)c(-c5ccccc5)c4=O)cc3F)c2nc1OC` [Compound 36, N-[4-[(6,7-Dimethoxy-1,5-naphthyridin-4-yl)oxy]-3-fluorophenyl]-1,6-dimethyl-4-oxo-5-phenylpyridine-3-carboxamide hydrochloride], the figures for the 50% inhibitory concentration (IC50) in assay [1], in assay [2] and in assay [3] were under 100 nM, under 100 nM and 100 to 300 nM, respectively.
As for `COc1cc2nccc(Oc3ccc(NC(=O)c4cn(C)c(C)c(-c5cccc(F)c5)c4=O)cc3F)c2nc1OC` [Compound 37, N-[4-[(6,7-Dimethoxy-1,5-naphthyridin-4-yl)oxy]-3-fluorophenyl]-5-(3-fluorophenyl)-1,6-dimethyl-4-oxopyridine-3-carboxamide hydrochloride], the results for the IC50 in assay [1], in assay [2] and in assay [3] were under 100 nM, under 100 nM and 100 to 300 nM, respectively.
Regarding `COc1cnc2c(Oc3ccc(NC(=O)c4cnc(C)c(-c5ccc(F)cc5C)c4O)cc3)ccnc2c1` [Compound 176, 5-(4-Fluoro-2-methylphenyl)-4-hydroxy-N-[4-[(7-methoxy-1,5-naphthyridin-4-yl)oxy]phenyl]-6-methylpyridine-3-carboxamide], the IC50 in assay [1], in assay [2] and in assay [3] was under 100 nM throughout.
For the molecule `COc1cc2nccc(Oc3ccc(NC(=O)c4c(C)nc(C)c(-c5ccc(F)cc5C)c4O)cc3F)c2nc1OC` [Compound 177, N-[4-[(6,7-Dimethoxy-1,5-naphthyridin-4-yl)oxy]-3-fluorophenyl]-5-(4-fluoro-2-methylphenyl)-4-hydroxy-2,6-dimethylpyridine-3-carboxamide], the 50% inhibitory concentration (IC50) in assay [1], in assay [2] and in assay [3] was under 100 nM in each case.
In the case of `COc1cnc2c(Oc3ccc(NC(=O)c4c(C)nc(C)c(-c5ccc(F)cc5C)c4O)cc3F)ccnc2c1` [Compound 178, N-[3-Fluoro-4-[(7-methoxy-1,5-naphthyridin-4-yl)oxy]phenyl]-5-(4-fluoro-2-methylphenyl)-4-hydroxy-2,6-dimethylpyridine-3-carboxamide], the IC50 in assay [1], in assay [2] and in assay [3] was under 100 nM each time.
Take `CCc1nc(C)c(-c2ccc(F)cc2)c(O)c1C(=O)Nc1ccc(Oc2ccnc3cc(OC)c(OC)nc23)c(F)c1` [Compound 179, N-[4-[(6,7-Dimethoxy-1,5-naphthyridin-4-yl)oxy]-3-fluorophenyl]-2-ethyl-5-(4-fluorophenyl)-4-hydroxy-6-methylpyridine-3-carboxamide]: the IC50 in assay [1], in assay [2] and in assay [3] was under 100 nM each time.
With `CCc1nc(C)c(-c2ccc(F)cc2)c(O)c1C(=O)Nc1ccc(Oc2ccnc3cc(OC)cnc23)c(F)c1` [Compound 180, 2-Ethyl-N-[3-fluoro-4-[(7-methoxy-1,5-naphthyridin-4-yl)oxy]phenyl]-5-(4-fluorophenyl)-4-hydroxy-6-methylpyridine-3-carboxamide], the IC50 in assay [1], in assay [2] and in assay [3] was under 100 nM throughout.
In the case of `COc1cnc2c(Oc3ccc(NC(=O)c4cn(C)c(C)c(-c5ccc(F)cc5C)c4=O)cc3F)ccnc2c1` [Compound 181, N-[3-Fluoro-4-[(7-methoxy-1,5-naphthyridin-4-yl)oxy]phenyl]-5-(4-fluoro-2-methylphenyl)-1,6-dimethyl-4-oxopyridine-3-carboxamide], the IC50 in assay [1] is under 100 nM; in assay [2], under 100 nM; in assay [3], over 300 nM.
In the case of `CCc1nc(C)c(-c2ccc(F)cc2)c(O)c1C(=O)Nc1ccc(Oc2ccnc3ccc(OC)nc23)c(F)c1` [Compound 182, 2-Ethyl-N-[3-fluoro-4-[(6-methoxy-1,5-naphthyridin-4-yl)oxy]phenyl]-5-(4-fluorophenyl)-4-hydroxy-6-methylpyridine-3-carboxamide], the concentration for half-maximal inhibition (IC50) in assay [1], in assay [2] and in assay [3] was under 100 nM throughout.
Regarding `COc1ccc2nccc(Oc3ccc(NC(=O)c4cn(C)c(C)c(-c5ccc(F)cc5C)c4=O)cc3F)c2n1` [Compound 183, N-[3-Fluoro-4-[(6-methoxy-1,5-naphthyridin-4-yl)oxy]phenyl]-5-(4-fluoro-2-methylphenyl)-1,6-dimethyl-4-oxopyridine-3-carboxamide], the IC50 in assay [1] is under 100 nM; in assay [2], 100 to 300 nM; in assay [3] it was over 300 nM.
For `COCc1nc(C)c(-c2ccc(F)cc2)c(O)c1C(=O)Nc1ccc(Oc2ccnc3cc(OC)c(OC)nc23)c(F)c1` [Compound 184, N-[4-[(6,7-Dimethoxy-1,5-naphthyridin-4-yl)oxy]-3-fluorophenyl]-5-(4-fluorophenyl)-4-hydroxy-2-(methoxymethyl)-6-methylpyridine-3-carboxamide], the IC50 in assay [1], in assay [2] and in assay [3] was under 100 nM each time.
As to `COCc1nc(C)c(-c2ccc(F)cc2)c(O)c1C(=O)Nc1ccc(Oc2ccnc3cc(OC)cnc23)cc1` [Compound 185, 5-(4-Fluorophenyl)-4-hydroxy-2-(methoxymethyl)-N-[4-[(7-methoxy-1,5-naphthyridin-4-yl)oxy]phenyl]-6-methylpyridine-3-carboxamide], the 50% inhibitory concentration (IC50) in assay [1], in assay [2] and in assay [3] was under 100 nM throughout.
Consider `COCc1nc(C)c(-c2ccc(F)cc2)c(O)c1C(=O)Nc1ccc(Oc2ccnc3cc(OC)cnc23)c(F)c1` [Compound 186, N-[3-Fluoro-4-[(7-methoxy-1,5-naphthyridin-4-yl)oxy]phenyl]-5-(4-fluorophenyl)-4-hydroxy-2-(methoxymethyl)-6-methylpyridine-3-carboxamide], for which the IC50 in assay [1], in assay [2] and in assay [3] was under 100 nM each time.
